In brackets after ≈: the same amount, converted by molar mass. Where two headings read alike, the source gives them in different places.

Data set [1] in a line: Caco-2 Assay (Papp A to B). As to conditions: human, Caco-2, pH 7.4.
Protocol: The degree of bi-directional human intestinal permeability for compounds was estimated using a Caco-2 cell permeability assay. Caco-2 cells were seeded onto polyethylene membranes in 96-well plates. The growth medium was refreshed every 4 to 5 days until cells formed a confluent cell monolayer. HBSS with 10 mM HEPES at pH 7.4 was used as the transport buffer. Compounds were tested at 2 μM bi-directionally in duplicate. Digoxin, nadolol and metoprolol were included as standards. Digoxin was tested at 10 μM bi-directionally in duplicate, while nadolol and metoprolol were tested at 2 μM in the A to B direction in duplicate. The final DMSO concentration was adjusted to less than 1% for all experiments. The plate was incubated for 2 hours in a CO2 incubator at 37° C., with 5% CO2 at saturated humidity. After incubation, all wells were mixed with acetonitrile containing an internal standard, and the plate was centrifuged at 4,000 rpm for 10 minutes. 100 μL supernatant was collected from each well and diluted with 100 μL distilled water for LC/MS/MS analysis. Concentrations of test and control compounds in starting solution, donor solution, and receiver solution were quantified by LC/MS/MS, using peak area ratio of analyte/internal standard. The apparent permeability coefficient Papp (cm/s) was calculated using the equation: Papp=(dCr/dt)×Vr/(A×C0) Where dCr/dt is the cumulative concentration of compound in the receiver chamber as a function of time (μM/s); Vr is the solution volume in the receiver chamber (0.075 mL on the apical side, 0.25 mL on the basolateral side); A is the surface area for the transport, which is 0.0804 cm^2 for the area of the monolayer; C0 is the initial concentration in the donor chamber (μM).
Data set [2] in a line: Measurement of Compound Metabolic Stability in hepatocytes.
Protocol: The metabolic stability of compounds was determined in hepatocytes from mice and rats. Compounds were diluted to 5 μM in Williams' Medium E from 10 mM stock solutions. 10 μL of each compound was aliquoted into a well of a 96-well plate and reactions were started by aliquoting 40 μL of a 625,000 cells/mL suspension into each well. The plate was incubated at 37° C. with 5% CO2. At each corresponding time point, the reaction was stopped by quenching with ACN containing internal standards (IS) at a 1:3. Plates were shaken at 500 rpm for 10 min, and then centrifuged at 3,220×g for 20 minutes. Supernatants were transferred to another 96-well plate containing a dilution solution. Supernatants were analyzed by LC/MS/MS. Compound half-life was estimated using the following equation:
Data set [3] relates to drug-sensitive cell lines of Table 2 (EFM-19, MDA-MB-453, T-47D, ZR-75-1, NCI-H441, OVTOKO, NCI-H1838). In words: Cell Line Growth Retardation Assay, sensitive cohort. Format: cell-based, human. As to conditions: for IC50: Homo sapiens, geometric mean over sensitive cohort, 6 days growth, read-out: AvgSensIC50; for Ther Window: average IC50 drug-resistant group divided by average IC50 drug-sensitive group. The method, boiled down: (§1)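 Cells rested 24 h, then exposed 6 days to compound at 10, 2, 0.4, 0.08, 0.016 and 0.0032 μM; counted by imaging on day 0 and day 6. Growth inhibition as ratio of population doublings versus vehicle; IC50 from curve fits, cohort values as geometric means.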

Data set [4] has as its system drug-resistant cell lines of Table 2 (NCI-H1437, OV207, HCC1806, NCI-H2172). Put plainly: Cell Line Growth Retardation Assay, resistant cohort. It is filed as cell-based, human. Conditions: Homo sapiens, […], geometric mean over resistant cohort; 6 days growth; read-out: AvgResIC50. The method, boiled down: as §1
In data set [5] the test system is CYP isozymes (IC50s averaged over the isozymes). In words: CYP Enzymatic Inhibition Assay in human liver microsomes.
Protocol: Inhibition of various CYP isozymes was measured for each compound using a CYP enzyme inhibition assay in human liver microsomes (HLM). Compounds and standard inhibitors were prepared at a 100× working solutions. Substrates or PBS were added to the corresponding wells followed by addition of compounds, solvent or positive control working solution to corresponding wells. HLMs were added to the pre-warmed (37° C.) plate and mixed with NADPH cofactor for 10 minutes at 37° C. The reaction was terminated by adding 400 μL cold stop solution (200 ng/mL Tolbutamide and 200 ng/mL Labetalol in ACN). The plate was centrifuged at 4,000 rpm for 20 minutes, and supernatant was transferred to 100 μL HPLC water followed by LC/MS/MS analysis.
The target in data set [6] is CDK4 (Homo sapiens (Human), UniProt P11802). In words: Cdk4 and 6 Enzymatic Inhibition Assay (radiometric 33PanQinase, Ki determination). It is filed as biochemical. The method in brief: (§2)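 Radiometric 33PanQinase assay in 70 mM HEPES-NaOH pH 7.5 with 3 mM MgCl2, 3 mM MnCl2, [γ-33P]-ATP, kinase and substrate; 60 min at 30° C, 1% DMSO final. Ten final concentrations from 2×10^−6 M to 6×10^−11 M; 33Pi incorporation counted by scintillation after H3PO4 stop.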

Data set [7] deals with CDK6 (Homo sapiens (Human), UniProt Q00534). The data set is described as above. It is filed as biochemical. The method in brief:
as §2

Data set [8] has as its target hERG potassium channels (Homo sapiens (Human), UniProt Q12809). In words: hERG Inhibition Assay (QPatch automated patch clamp, CHO cells). As to conditions: percent of control current.
Data set [9] can be described thus: Compound Solubility Assay (kinetic solubility). It is filed as physicochemical. As to conditions: kinetic from dmso stock. As for the experimental part:
The relative kinetic solubility of each compound was determined at both low (1.2) and neutral (7.4) pH. Compounds were prepared at 10 mM stocks. […] Compounds were allowed to shake at room temperature for 24 hours in 50 mM phosphate buffer pH 7.4, or in SGF buffer pH 1.2 at 37° C. for 24 hours.

[10] abbreviates: 50 mM phosphate buffer, pH 7.4, aqueous buffer, read-out: KS7.
[11] abbreviates: simulated gastric fluid, kinetic solubility, SGF buffer pH 1.2, 37° C., 24 hours, read-out: KS1.

Sequence of CDK6 (Q00534 whole entry): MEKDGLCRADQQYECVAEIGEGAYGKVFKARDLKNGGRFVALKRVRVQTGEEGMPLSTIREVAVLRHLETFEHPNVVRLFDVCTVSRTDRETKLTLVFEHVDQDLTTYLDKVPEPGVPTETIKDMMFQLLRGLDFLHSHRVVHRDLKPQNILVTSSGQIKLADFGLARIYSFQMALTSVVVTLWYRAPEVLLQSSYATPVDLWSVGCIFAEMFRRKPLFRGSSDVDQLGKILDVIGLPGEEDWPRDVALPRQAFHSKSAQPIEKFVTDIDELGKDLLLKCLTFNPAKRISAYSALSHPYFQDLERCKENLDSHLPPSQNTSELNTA
Sequence of CDK6 (P24385 whole entry partner): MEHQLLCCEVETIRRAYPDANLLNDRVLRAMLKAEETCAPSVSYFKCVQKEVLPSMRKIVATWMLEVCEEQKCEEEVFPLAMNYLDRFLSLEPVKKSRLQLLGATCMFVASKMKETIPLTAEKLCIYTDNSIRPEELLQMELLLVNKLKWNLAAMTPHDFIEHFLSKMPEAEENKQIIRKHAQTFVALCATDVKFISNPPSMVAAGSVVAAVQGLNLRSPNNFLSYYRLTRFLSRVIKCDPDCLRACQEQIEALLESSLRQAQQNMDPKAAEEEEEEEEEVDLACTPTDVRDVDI
Sequence of hERG potassium channels (Q12809 whole entry): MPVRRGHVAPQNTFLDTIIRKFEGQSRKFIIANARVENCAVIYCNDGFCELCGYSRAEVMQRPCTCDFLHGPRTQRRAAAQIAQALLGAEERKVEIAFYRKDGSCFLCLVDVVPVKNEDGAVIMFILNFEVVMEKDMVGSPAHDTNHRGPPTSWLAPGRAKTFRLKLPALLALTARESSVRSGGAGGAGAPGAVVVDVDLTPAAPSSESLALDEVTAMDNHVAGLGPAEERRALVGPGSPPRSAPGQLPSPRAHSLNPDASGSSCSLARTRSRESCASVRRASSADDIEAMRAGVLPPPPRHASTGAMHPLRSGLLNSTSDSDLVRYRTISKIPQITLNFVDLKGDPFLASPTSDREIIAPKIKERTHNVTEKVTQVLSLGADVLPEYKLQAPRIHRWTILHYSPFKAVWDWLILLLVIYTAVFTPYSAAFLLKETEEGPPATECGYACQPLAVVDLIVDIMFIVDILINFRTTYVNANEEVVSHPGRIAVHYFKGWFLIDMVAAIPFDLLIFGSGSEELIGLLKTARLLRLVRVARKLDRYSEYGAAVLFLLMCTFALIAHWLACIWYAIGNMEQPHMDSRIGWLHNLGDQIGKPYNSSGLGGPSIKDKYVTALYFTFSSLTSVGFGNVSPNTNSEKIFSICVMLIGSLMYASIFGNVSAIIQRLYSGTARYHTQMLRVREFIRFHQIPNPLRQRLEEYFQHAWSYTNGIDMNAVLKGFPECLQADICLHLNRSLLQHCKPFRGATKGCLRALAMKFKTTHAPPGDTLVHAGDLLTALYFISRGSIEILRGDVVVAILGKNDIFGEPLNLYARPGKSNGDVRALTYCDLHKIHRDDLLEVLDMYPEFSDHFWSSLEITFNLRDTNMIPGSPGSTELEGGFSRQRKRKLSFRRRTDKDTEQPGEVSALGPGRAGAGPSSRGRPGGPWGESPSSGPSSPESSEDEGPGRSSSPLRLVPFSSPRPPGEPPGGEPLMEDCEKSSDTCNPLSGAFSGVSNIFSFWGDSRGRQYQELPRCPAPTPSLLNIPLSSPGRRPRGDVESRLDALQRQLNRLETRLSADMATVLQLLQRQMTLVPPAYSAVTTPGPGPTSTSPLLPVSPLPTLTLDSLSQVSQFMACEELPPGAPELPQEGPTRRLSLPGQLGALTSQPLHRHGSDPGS
Sequence of CDK4 (P11802 whole entry): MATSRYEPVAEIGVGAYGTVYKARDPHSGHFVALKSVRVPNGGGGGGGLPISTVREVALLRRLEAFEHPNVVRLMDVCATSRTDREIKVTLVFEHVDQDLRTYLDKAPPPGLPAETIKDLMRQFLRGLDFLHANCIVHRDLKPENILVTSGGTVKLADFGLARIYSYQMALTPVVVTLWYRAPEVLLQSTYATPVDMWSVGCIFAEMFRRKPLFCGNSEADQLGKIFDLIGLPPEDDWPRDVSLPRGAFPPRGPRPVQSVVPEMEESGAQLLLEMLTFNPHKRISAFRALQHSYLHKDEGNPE
Sequence of CDK4 (P24385 whole entry partner): as the sequence (P24385 whole entry partner) above

In the case of `CC(=O)N1CC[C@]2(CN(Cc3ccc(Nc4ncc(F)c(-c5cc(F)c6nc(C)n(C(C)C)c6c5)n4)nc3)CCO2)C1` [Compound A37, (S)-1-(9-((6-((5-fluoro-4-(4-fluoro-1-isopropyl-2-methyl-1H-benzo[d]imidazol-6-yl)pyrimidin-2-yl)amino)pyridin-3-yl)methyl)-6-oxa-2,9-diazaspiro[4.5]decan-2-yl)ethan-1-one], the Papp A→B at 2 h, 2 μM in data set [1] came to 0.39 ×10⁻⁶ cm/s. The half-life at 1 μM in [2] was 27 min. In addition, the IC50 was 260 nM in [3] and 810 nM in data set [4]. Besides, the “Ther Window” value in [3] amounted to 3.10. The compound also registered an IC50 at 10 min in data set [5] of 43300 nM. Moreover, the Ki turned out to be 1.6 nM in data set [6] and 6.86 nM in [7]. Moreover, in data set [8], the hERG is 15.08%. Further, the solubility kinetic at 24 h in data set [9] (setting [10]) is 109 µM (≈ 62.9 µg/mL); in [9] (setting [11]), 197 µM (≈ 114 µg/mL).

On to `CCN(CC)CCC1(C)CN(Cc2ccc(Nc3ncc(F)c(-c4cc(F)c5nc(C)n(C(C)C)c5c4)n3)nc2)CCO1` (stereo in doubt) [Compound A3, (S)—N-(5-((2-(2-(diethylamino)ethyl)-2-methylmorpholino)methyl)pyridin-2-yl)-5-fluoro-4-(4-fluoro-1-isopropyl-2-methyl-1H-benzo[d]imidazol-6-yl)pyrimidin-2-amine], for which the Papp A→B at 2 h, 2 μM in data set [1] turned out to be 0.05 ×10⁻⁶ cm/s. In addition, in data set [2], the half-life at 1 μM stood at 130 min. In addition, the values for the IC50 in data set [3] and in [4] were 70 nM and 1000 nM, respectively. Also, the “Ther Window” value in [3] was found to be 13.77. Besides, the IC50 at 10 min in [5] stood at 37200 nM. Further, the Ki in [6] was 2.04 nM; in data set [7], 7.39 nM. The hERG in data set [8] stood at 26.68%. Also, the solubility kinetic at 24 h in [9] (setting [10]) was 163 µM (≈ 96.6 µg/mL); in data set [9] (setting [11]), 200 µM (≈ 119 µg/mL).

For the compound `Cc1nc2c(F)cc(-c3nc(Nc4ccc(CN5CCO[C@](C)(CC(=O)N(C)C)C5)cn4)ncc3F)cc2n1C(C)C` [Compound A55, (R)-2-(4-((6-((5-fluoro-4-(4-fluoro-1-isopropyl-2-methyl-1H-benzo[d]imidazol-6-yl)pyrimidin-2-yl)amino)pyridin-3-yl)methyl)-2-methylmorpholin-2-yl)-N,N-dimethylacetamide], the Papp A→B at 2 h, 2 μM in [1] stood at 0.11 ×10⁻⁶ cm/s. In addition, in [2], the half-life at 1 μM was 5.4 min. Also, the IC50 in data set [3] came to 210 nM; in data set [4], 900 nM. In [3], the “Ther Window” value is 4.33. In data set [5], this compound gave an IC50 at 10 min of 20100 nM. Moreover, the Ki in data set [6] came out at 1.6 nM; in data set [7], 11.9 nM. The compound also came in with a hERG in data set [8] of 26.03%. Moreover, in data set [9] (setting [11]), the solubility kinetic at 24 h is 196 µM (≈ 113 µg/mL).

For the compound `Cc1nc2c(F)cc(-c3nc(Nc4ccc(CN5CCO[C@@]6(CCN(S(C)(=O)=O)C6)C5)cn4)ncc3F)cc2n1C(C)C` [Compound A31, (S)-5-fluoro-4-(4-fluoro-1-isopropyl-2-methyl-1H-benzo[d]imidazol-6-yl)-N-(5-((2-(methylsulfonyl)-6-oxa-2,9-diazaspiro[4.5]decan-9-yl)methyl)pyridin-2-yl)pyrimidin-2-amine], the Papp A→B at 2 h, 2 μM in [1] was 0.85 ×10⁻⁶ cm/s. The compound further came in with a half-life at 1 μM in data set [2] of 5.65 min. For the same compound, the results for the IC50 in data set [3] and in [4] were 140 nM and 960 nM, respectively. Also, the “Ther Window” value in [3] is recorded as 6.72. In addition, the IC50 at 10 min in data set [5] was 12800 nM. In addition, the figures for the Ki in data set [6] and in data set [7] were 1.71 nM and 10.2 nM, respectively. Further, the hERG in [8] is 21.67%. The solubility kinetic at 24 h in data set [9] (setting [10]) is 3.09 µM (≈ 1.89 µg/mL); in data set [9] (setting [11]), 200 µM (≈ 123 µg/mL).

`CNCC[C@@]1(C)CN(Cc2ccc(Nc3ncc(F)c(-c4cc(F)c5nc(C)n(C(C)C)c5c4)n3)nc2)CCO1` [Compound A22, (S)-5-fluoro-4-(4-fluoro-1-isopropyl-2-methyl-1H-benzo[d]imidazol-6-yl)-N-(5-((2-methyl-2-(2-(methylamino)ethyl)morpholino)methyl)pyridin-2-yl)pyrimidin-2-amine]: the Papp A→B at 2 h, 2 μM in data set [1] amounted to 0.05 ×10⁻⁶ cm/s. In data set [2], the half-life at 1 μM turned out to be 202 min. Moreover, the IC50 is 80 nM in [3] and 870 nM in data set [4]. Besides, the “Ther Window” value in data set [3] is given as 10.57. Further, the IC50 at 10 min in data set [5] was 35800 nM. For the same compound, the Ki was found to be 0.52 nM in [6] and 3.55 nM in data set [7]. Besides, in data set [8], the hERG stood at 15.58%. Moreover, the solubility kinetic at 24 h was 15.6 µM (≈ 8.57 µg/mL) in data set [9] (setting [10]) and 200 µM (≈ 110 µg/mL) in [9] (setting [11]).

In the case of `Cc1nc2c(F)cc(-c3nc(Nc4ccc(CN5CCO[C@](C)(CC(=O)N6CCCC6)C5)cn4)ncc3F)cc2n1C(C)C` [Compound A60, (R)-2-(4-((6-((5-fluoro-4-(4-fluoro-1-isopropyl-2-methyl-1H-benzo[d]imidazol-6-yl)pyrimidin-2-yl)amino)pyridin-3-yl)methyl)-2-methylmorpholin-2-yl)-1-(pyrrolidin-1-yl)ethan-1-one], in data set [1], the Papp A→B at 2 h, 2 μM came out at 1 ×10⁻⁶ cm/s. This compound registered a half-life at 1 μM in [2] of 3.32 min. Also, the IC50 in [3] worked out at 270 nM; in [4], 1000 nM. Further, the “Ther Window” value in data set [3] is given as 3.70. This compound also yielded an IC50 at 10 min in [5] of 18100 nM. Also, the figures for the Ki in data set [6] and in data set [7] were 2.14 nM and 14.5 nM, respectively. The compound also had a hERG in data set [8] of 28%. The figures for the solubility kinetic at 24 h in data set [9] (setting [10]) and in [9] (setting [11]) were 3.12 µM (≈ 1.89 µg/mL) and 186 µM (≈ 113 µg/mL), respectively.

The compound `Cc1nc2c(F)cc(-c3nc(Nc4ccc(CN5CCO[C@](C)(CCNCC(F)(F)F)C5)cn4)ncc3F)cc2n1C(C)C` [Compound A9, (R)-5-fluoro-4-(4-fluoro-1-isopropyl-2-methyl-1H-benzo[d]imidazol-6-yl)-N-(5-((2-methyl-2-(2-((2,2,2-trifluoroethyl)amino)ethyl)morpholino)methyl)pyridin-2-yl)pyrimidin-2-amine] came in with a Papp A→B at 2 h, 2 μM in [1] of 2.14 ×10⁻⁶ cm/s. The same compound displayed a half-life at 1 μM in data set [2] of 15.3 min. The IC50 is 120 nM in data set [3] and 1000 nM in data set [4]. Moreover, the “Ther Window” value in data set [3] was determined as 8.59. In data set [5], the IC50 at 10 min turned out to be 26100 nM. Further, the results for the Ki in data set [6] and in data set [7] were 2.54 nM and 14.5 nM, respectively. The same compound gave a hERG in data set [8] of 21.86%. Further, the values for the solubility kinetic at 24 h in data set [9] (setting [10]) and in [9] (setting [11]) were 1 µM (≈ 0.619 µg/mL) and 200 µM (≈ 124 µg/mL), respectively.

Compound `COC(=O)N1CC[C@]2(CN(Cc3ccc(Nc4ncc(F)c(-c5cc(F)c6nc(C)n(C(C)C)c6c5)n4)nc3)CCO2)C1` [Compound A30, methyl (S)-9-((6-((5-fluoro-4-(4-fluoro-1-isopropyl-2-methyl-1H-benzo[d]imidazol-6-yl)pyrimidin-2-yl)amino)pyridin-3-yl)methyl)-6-oxa-2,9-diazaspiro[4.5]decane-2-carboxylate] showed a Papp A→B at 2 h, 2 μM in [1] of 4.6 ×10⁻⁶ cm/s. For the same compound, in data set [2], the half-life at 1 μM stood at 4.99 min. Also, the IC50 worked out at 110 nM in data set [3] and 990 nM in data set [4]. For the same compound, the “Ther Window” value in data set [3] is 9.41. Also, in data set [5], the IC50 at 10 min was 30000 nM. Moreover, the Ki in [6] turned out to be 2.95 nM; in data set [7], 16.5 nM. For the same compound, the hERG in [8] was 15.21%. Besides, the solubility kinetic at 24 h in [9] (setting [10]) is 2.52 µM (≈ 1.49 µg/mL); in data set [9] (setting [11]) it was 200 µM (≈ 119 µg/mL).

Take `COC(=O)N1CC[C@@]2(CN(Cc3ccc(Nc4ncc(F)c(-c5cc(F)c6nc(C)n(C(C)C)c6c5)n4)nc3)CCO2)C1` [Compound A33]: the Papp A→B at 2 h, 2 μM in data set [1] was 3.94 ×10⁻⁶ cm/s. This compound also registered a half-life at 1 μM in data set [2] of 4.73 min. For the same compound, the values for the IC50 in data set [3] and in data set [4] were 150 nM and 1000 nM, respectively. The “Ther Window” value in data set [3] worked out at 6.51. Also, the IC50 at 10 min in [5] was determined as 18700 nM. In addition, the figures for the Ki in data set [6] and in data set [7] were 3.42 nM and 20.1 nM, respectively. The compound also returned a hERG in [8] of 18.72%. Besides, the figures for the solubility kinetic at 24 h in data set [9] (setting [10]) and in data set [9] (setting [11]) were 2.02 µM (≈ 1.2 µg/mL) and 200 µM (≈ 119 µg/mL), respectively.

`CC(=O)N1CC[C@@]2(CN(Cc3ccc(Nc4ncc(F)c(-c5cc(F)c6nc(C)n(C(C)C)c6c5)n4)nc3)CCO2)C1` [Compound A36] registered a Papp A→B at 2 h, 2 μM in [1] of 0.59 ×10⁻⁶ cm/s. Besides, the half-life at 1 μM in data set [2] is 30.8 min. Also, the IC50 came to 250 nM in data set [3] and 910 nM in data set [4]. In [3], the “Ther Window” value is listed as 3.57. For the same compound, the IC50 at 10 min in data set [5] is 23400 nM. Moreover, the Ki amounted to 1.91 nM in [6] and 10.8 nM in data set [7]. For the same compound, the hERG in [8] is on record as 21.60%. Further, the solubility kinetic at 24 h is 3.28 µM (≈ 1.89 µg/mL) in data set [9] (setting [10]) and 200 µM (≈ 115 µg/mL) in data set [9] (setting [11]).
